Experimental data as given in patent US20250368627A1, “PYRAZOLESULFONAMIDES AS ANTITUMOR AGENTS” (Peloton Therapeutics, Inc., a fully owned subsidiary of …, priority 2019, published 2025).

Columns and labels:
[1] = tested on: HCT116 human colorectal carcinoma cells; assay: CellTiter-Glo Luminescent Cell Viability Assay; type: cell-based; details: HCT-116, 72 h, 3 days
Method: HCT116 human colorectal carcinoma cells were used in these experiments. HCT116 cells were obtained from ATCC. CellTiter-Glo® Luminescent Cell Viability Assay Reagent was obtained from Promega.
About 3,000 cells were seeded into 96-well plate with […] of media (DMEM supplemented with 10% FBS, 100 units penicillin, and […] streptomycin per mL) the day before the experiment. For compound treatment, the master plate was prepared as follows: 100× compound stocks were prepared in a 96-well plate by 1 to 3 serial dilutions of 0.5 mM DMSO stocks. Each master plate contained serial dilution of 8 compounds, including the control compound E7820. […] of 100× compound stock was added to each well of the assay plate to give final concentrations of […]. Each concentration was tested in triplicate. After 3 days, cell viability was determined using CellTiter-Glo Luminescent Cell Viability Assay Reagent following the manufacturer's recommended protocol. Briefly, […] of CellTiter-Glo reagent was added to each well of the assay plate and the contents were mixed for 3 minutes at 600 rpm on a shaker (Thermomixer R). The plate was immediately placed in a plate reader (Synergy 2) and the luminescence signal (0.5 second per well integration time) was determined. IC50 values were calculated using Dotmatics software.

[2] = biological target: T1, DDB1DB/DCAF15 and RBM39 R1R2 complex (Homo sapiens, UniProt Q14498+Q66K64); assay: DCAF15 RBM39 Complex Formation Assay (FRET); type: binding; details: FRET ratio Em 665/Em 615, incubated overnight at 4° C.
T1 construct: Amino acids 150 to 331 of RBM39 were cloned into pGEX4T3; GST (from vector pGEX4T3); TEV cleavage site (N); made in house; host or cells: DDB1DB/His-DCAF15: baculovirus/Sf9 co-expression; RBM39 R1R2: E. coli (pGEX4T3)
T1 sequence (Q66K64 whole entry, the tested form may be a part): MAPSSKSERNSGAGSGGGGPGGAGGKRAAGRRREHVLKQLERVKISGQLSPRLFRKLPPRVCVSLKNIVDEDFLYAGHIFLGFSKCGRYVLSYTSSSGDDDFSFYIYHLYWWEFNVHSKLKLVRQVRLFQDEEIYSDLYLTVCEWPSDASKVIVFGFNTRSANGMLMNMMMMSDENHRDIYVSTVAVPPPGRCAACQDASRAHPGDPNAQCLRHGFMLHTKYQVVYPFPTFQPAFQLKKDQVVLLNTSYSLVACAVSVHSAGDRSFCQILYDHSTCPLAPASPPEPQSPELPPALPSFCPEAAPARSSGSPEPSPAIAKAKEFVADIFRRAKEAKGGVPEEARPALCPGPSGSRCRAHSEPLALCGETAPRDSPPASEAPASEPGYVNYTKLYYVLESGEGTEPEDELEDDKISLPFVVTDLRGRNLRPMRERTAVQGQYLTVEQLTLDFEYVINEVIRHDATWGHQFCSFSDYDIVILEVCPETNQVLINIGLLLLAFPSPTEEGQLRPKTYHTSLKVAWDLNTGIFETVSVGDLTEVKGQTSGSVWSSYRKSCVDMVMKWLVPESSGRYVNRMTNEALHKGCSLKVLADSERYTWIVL
T1 sequence (Q14498 150-331): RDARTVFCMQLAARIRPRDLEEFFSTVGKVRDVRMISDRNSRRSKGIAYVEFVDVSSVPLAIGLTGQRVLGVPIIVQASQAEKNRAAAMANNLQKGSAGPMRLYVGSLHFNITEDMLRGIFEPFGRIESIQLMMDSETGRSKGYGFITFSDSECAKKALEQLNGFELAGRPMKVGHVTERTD
T1 sequence (Q16531 with tags, fused parts or gaps DEL396-708 partner): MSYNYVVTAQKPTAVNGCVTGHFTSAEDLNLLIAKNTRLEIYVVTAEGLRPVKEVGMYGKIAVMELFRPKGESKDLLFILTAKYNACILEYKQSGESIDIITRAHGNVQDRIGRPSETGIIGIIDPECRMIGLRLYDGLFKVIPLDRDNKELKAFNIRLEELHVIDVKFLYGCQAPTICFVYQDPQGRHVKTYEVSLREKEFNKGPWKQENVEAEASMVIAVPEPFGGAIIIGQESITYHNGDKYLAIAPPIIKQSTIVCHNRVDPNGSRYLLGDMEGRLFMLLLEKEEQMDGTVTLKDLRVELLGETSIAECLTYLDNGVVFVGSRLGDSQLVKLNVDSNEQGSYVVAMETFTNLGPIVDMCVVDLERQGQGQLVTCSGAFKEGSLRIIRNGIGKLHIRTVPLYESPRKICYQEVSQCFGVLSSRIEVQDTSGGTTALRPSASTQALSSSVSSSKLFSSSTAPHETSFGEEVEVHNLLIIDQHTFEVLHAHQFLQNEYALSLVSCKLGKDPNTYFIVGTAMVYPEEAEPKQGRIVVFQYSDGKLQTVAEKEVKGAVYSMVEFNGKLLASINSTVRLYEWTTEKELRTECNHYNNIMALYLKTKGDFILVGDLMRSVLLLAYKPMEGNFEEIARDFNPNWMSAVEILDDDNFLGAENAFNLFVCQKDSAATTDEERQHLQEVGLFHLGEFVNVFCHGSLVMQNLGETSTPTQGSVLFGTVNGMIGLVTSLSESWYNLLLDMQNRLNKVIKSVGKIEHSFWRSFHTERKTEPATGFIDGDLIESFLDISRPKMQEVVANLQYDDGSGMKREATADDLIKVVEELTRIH
Description: LANCE Eu-W1024 Anti-6×His and SureLight Allophycocyanin-anti-FLAG antibodies were purchased from Perkin Elmer. Human DDB1DB and His-tagged DCAF15 were co-expressed in baculovirus/sf9 system. While full length DDB1 contains three 7-bladed propellers termed A, B, and C, DDB1DB has only propeller A (amino acids 1 to 395) and C (amino acids 709-1140). The His-tagged DCAF15 contains six histidine residues directly preceding the DCAF15 sequence without any linker. An RBM39 fragment containing RRM1 and RRM2 was expressed in E. coli. Amino acids 150 to 331 of RBM39 were cloned into pGEX4T3 with an N-terminal TEV cleavage site and a C-terminal FLAG tag.
A compound of the present disclosure in DMSO (2 μL) was transferred to a 384-well assay plate. Compound was added in 14 points, 3-fold serial dilution (1 μM to 0.6 pico molar) in DMSO. […] FRET assay buffer (25 mM HEPES, pH 7.5, 100 mM NaCl, […], 0.5 mM TCEP, 0.005% Tween-20, 0.2 nM Eu—W1024 Anti-6×His, 50 nM SureLight Allophycocyanin-anti-FLAG, 20 nM DDB1DB/DCAF15, 50 nM RBM39 R1R2) was added and the resulting solution was incubated overnight at 4° C. The plate was placed in a plate reader (Spark 10) with excitation at 1=340 nm and emissions monitored at 1=665 nm and 1=615 nm, and the FRET ratio (Em 665/Em 615) was determined. Low signal controls containing no compound and high signal controls containing 10 mM indisulam were measured for each plate.
EC50 values were calculated using Dotmatics template equation for 4-parameter fit. Results are expressed as % formation using the following equation: […]

EC50 [1]	IC50 [2]	SMILES
> 1000 nM	> 1000 nM	N#Cc1cc(C(F)(F)F)ccc1-n1cc(S(=O)(=O)Nc2cccc3c(Cl)c[nH]c23)cn1 [Compound 22, N-(3-chloro-1H-indol-7-yl)-1-[2-cyano-4-(trifluoromethyl)phenyl]pyrazole-4-sulfonamide]
> 1000 nM	< 250 nM	COCCOCCn1cc(S(=O)(=O)Nc2cccc3c(Cl)c[nH]c23)cn1 [Compound 23, N-(3-chloro-1H-indol-7-yl)-1-[2-(2-methoxyethoxy)ethyl]pyrazole-4-sulfonamide]
> 1000 nM	250 to 1000 nM	COCCOCCOCCn1cc(S(=O)(=O)Nc2cccc3c(Cl)c[nH]c23)cn1 [Compound 24, N-(3-chloro-1H-indol-7-yl)-1-[2-[2-(2-methoxyethoxy)ethoxy)ethyl]pyrazole-4-sulfonamide]
250 to 1000 nM	< 250 nM	Cc1ccc(NS(=O)(=O)c2cnn(CCO)c2)c2[nH]cc(C#N)c12 [Compound 25, N-(3-cyano-4-methyl-1H-indol-7-yl)-1-(2-hydroxyethyl)-1H-pyrazole-4-sulfonamide]
> 1000 nM	< 250 nM	CC(C)(C)OC(=O)N1CCC(n2cc(S(=O)(=O)Nc3cccc4c(Cl)c[nH]c34)cn2)CC1 [Compound 26, tert-butyl 4-[4-[(3-chloro-1H-indol-7-yl)sulfamoyl]pyrazol-1-yl]piperidine-1-carboxylate]
> 1000 nM	< 250 nM	CC(=O)N1CC(n2cc(S(=O)(=O)Nc3cccc4c(Cl)c[nH]c34)cn2)C1 [Compound 27, 1-(1-acetylazetidin-3-yl)-N-(3-chloro-1H-indol-7-yl)pyrazole-4-sulfonamide]
250 to 1000 nM	< 250 nM	CC1(Cn2cc(S(=O)(=O)Nc3cccc4c(Cl)c[nH]c34)cn2)COC1 [Compound 28, N-(3-chloro-1H-indol-7-yl)-1-[(3-methyloxetan-3-yl)methyl]pyrazole-4-sulfonamide]
250 to 1000 nM	< 250 nM	Cc1ccc(NS(=O)(=O)c2cnn(C3CCOC3)c2)c2[nH]cc(C#N)c12 (centres unmarked) [Compound 29, N-(3-cyano-4-methyl-1H-indol-7-yl)-1-tetrahydrofuran-3-yl-pyrazole-4-sulfonamide]
> 1000 nM	> 1000 nM	O=S(=O)(Nc1cccc2c(Cl)c[nH]c12)c1cnn(-c2ccc(C(F)(F)F)cn2)c1 [Compound 30, N-(3-chloro-1H-indol-7-yl)-1-[5-(trifluoromethyl)-2-pyridyl]pyrazole-4-sulfonamide]
> 1000 nM	< 250 nM	Cc1ccc(NS(=O)(=O)c2cnn(-c3ccc(C(F)(F)F)cn3)c2)c2[nH]cc(C#N)c12 [Compound 31, N-(3-cyano-4-methyl-1H-indol-7-yl)-1-[5-(trifluoromethyl)-2-pyridyl]pyrazole-4-sulfonamide]
250 to 1000 nM	< 250 nM	COC(Cn1cc(S(=O)(=O)Nc2cccc3c(Cl)c[nH]c23)cn1)OC [Compound 32, N-(3-chloro-1H-indol-7-yl)-1-(2,2-dimethoxyethyl)pyrazole-4-sulfonamide]
> 1000 nM	250 to 1000 nM	CC(C)(C)OC(=O)NCCn1cc(S(=O)(=O)Nc2cccc3c(Cl)c[nH]c23)cn1 [Compound 33, tert-butyl N-[2-[4-[(3-chloro-1H-indol-7-yl)sulfamoyl]pyrazol-1-yl]ethyl]carbamate]
> 1000 nM	< 250 nM	NCCn1cc(S(=O)(=O)Nc2cccc3c(Cl)c[nH]c23)cn1 [Compound 34, 1-(2-aminoethyl)-N-(3-chloro-1H-indol-7-yl)pyrazole-4-sulfonamide]
250 to 1000 nM	< 250 nM	O=S(=O)(Nc1cccc2c(Cl)c[nH]c12)c1cnn(CCF)c1 [Compound 35, N-(3-chloro-1H-indol-7-yl)-1-(2-fluoroethyl)pyrazole-4-sulfonamide]
< 250 nM	< 250 nM	Cc1ccc(NS(=O)(=O)c2cnn(CCF)c2)c2[nH]cc(C#N)c12 [Compound 36, N-(3-cyano-4-methyl-1H-indol-7-yl)-1-(2-fluoroethyl)pyrazole-4-sulfonamide]
> 1000 nM	< 250 nM	O=S(=O)(Nc1cccc2c(Cl)c[nH]c12)c1cnn(-c2ccccc2)c1 [Compound 37, N-(3-chloro-1H-indol-7-yl)-1-phenyl-pyrazole-4-sulfonamide]
250 to 1000 nM	< 250 nM	CC(C)n1cc(S(=O)(=O)Nc2cccc3c(Cl)c[nH]c23)cn1 [Compound 39, N-(3-chloro-1H-indol-7-yl)-1-isopropyl-pyrazole-4-sulfonamide]
250 to 1000 nM	< 250 nM	O=S(=O)(Nc1cccc2c(Cl)c[nH]c12)c1cnn(C2COC2)c1 [Compound 40, N-(3-chloro-1H-indol-7-yl)-1-(oxetan-3-yl)pyrazole-4-sulfonamide]
> 1000 nM	250 to 1000 nM	O=S(=O)(Nc1cccc2c(Cl)c[nH]c12)c1cnn(C2CCNCC2)c1 [Compound 41, N-(3-chloro-1H-indol-7-yl)-1-(4-piperidyl)pyrazole-4-sulfonamide]
> 1000 nM	< 250 nM	O=S(=O)(Nc1cccc2c(Cl)c[nH]c12)c1cnn(CC2CNC2)c1 [Compound 43, 1-(azetidin-3-ylmethyl)-N-(3-chloro-1H-indol-7-yl)pyrazole-4-sulfonamide]
> 1000 nM	< 250 nM	CC1(Cn2cc(S(=O)(=O)Nc3cccc4c(Cl)c[nH]c34)cn2)CSC1 [Compound 44, N-(3-chloro-1H-indol-7-yl)-1-[(3-methylthietan-3-yl)methyl]pyrazole-4-sulfonamide]
250 to 1000 nM	< 250 nM	CC1(Cn2cc(S(=O)(=O)Nc3cccc4c(Cl)c[nH]c34)cn2)CS(=O)(=O)C1 [Compound 45, N-(3-chloro-1H-indol-7-yl)-1-[(3-methyl-1,1-dioxo-thietan-3-yl)methyl]pyrazole-4-sulfonamide]
250 to 1000 nM	< 250 nM	Cn1cc(S(=O)(=O)Nc2cccc3c(C#N)c[nH]c23)cn1 [Compound 46, N-(3-cyano-1H-indol-7-yl)-1-methyl-pyrazole-4-sulfonamide]
250 to 1000 nM	< 250 nM	O=S(=O)(Nc1cccc2c(Cl)c[nH]c12)c1cnn(C2CCC2)c1 [Compound 47, N-(3-chloro-1H-indol-7-yl)-1-cyclobutyl-pyrazole-4-sulfonamide]
250 to 1000 nM	< 250 nM	COCCn1cc(S(=O)(=O)Nc2cccc3c(Cl)c[nH]c23)cn1 [Compound 49, N-(3-chloro-1H-indol-7-yl)-1-(2-methoxyethyl)pyrazole-4-sulfonamide]
250 to 1000 nM	< 250 nM	O=S(=O)(Nc1cccc2c(Cl)c[nH]c12)c1cnn(CC2CC2)c1 [Compound 51, N-(3-chloro-1H-indol-7-yl)-1-(cyclopropylmethyl)pyrazole-4-sulfonamide]
250 to 1000 nM	< 250 nM	N#CC1(Cn2cc(S(=O)(=O)Nc3cccc4c(Cl)c[nH]c34)cn2)CC1 [Compound 52, N-(3-chloro-1H-indol-7-yl)-1-[(1-cyanocyclopropyl)methyl]pyrazole-4-sulfonamide]
> 1000 nM	< 250 nM	O=S(=O)(Nc1cccc2c(Cl)c[nH]c12)c1cnn(CC2CC(F)(F)C2)c1 [Compound 53, N-(3-chloro-1H-indol-7-yl)-1-[(3,3-difluorocyclobutyl)methyl]pyrazole-4-sulfonamide]
